Molecules are shown by their SMILES. Read-outs that look alike come from different tables or passages of the source.

The assay concerns LMP1 expression in Kem I cells. Kind of assay: microbe, parasite or virus in culture. The class given is cell-based, EBV. As to conditions: for Average LMP1 Fold Increase / Replicate 1-LMP1 Fold Increase / Replicate 2-LMP1 Fold Increase: Kem I cells, 48 hours; for Average LMP1 Fold Increase: average of replicates 1 and 2; for Replicate 1-LMP1 Fold Increase / Replicate 2-LMP1 Fold Increase: fold change in LMP1 transcript vs vehicle; for fold induction at 2.5 µM / fold induction at 1 µM: human gammaherpesvirus 4, 48 h.

Setting [1] is: read-out: Average LMP1 Fold Increase, Kem I cells, 2.5 uM, 48 hours, average of replicates 1 and 2.
[2] abbreviates: read-out: Replicate 1-LMP1 Fold Increase, Kem I cells, 2.5 uM, 48 hours, fold change in LMP1 transcript vs vehicle.
The mark [3] stands for this setting: read-out: Replicate 2-LMP1 Fold Increase, Kem I cells, 2.5 uM, 48 hours, fold change in LMP1 transcript vs vehicle.

In the case of `COc1ccc(C[C@@H](C)NC[C@H](O)c2ccc(O)c(NC=O)c2)cc1.COc1ccc(C[C@@H](C)NC[C@H](O)c2ccc(O)c(NC=O)c2)cc1.O=C(O)/C=C/C(=O)O` [Formoterol Hemifumarate], under “2.5 uM”, the “Average LMP1 Fold Increase” value is on record as 1.83, the “Replicate 1-LMP1 Fold Increase” value was 1.71 and the “Replicate 2-LMP1 Fold Increase” value is recorded as 1.96.

As to `C=C[C@@]1(C)CC(=O)[C@]2(O)[C@@]3(C)[C@@H](O)CCC(C)(C)[C@@H]3[C@H](O)[C@H](OC(C)=O)[C@@]2(C)O1` [Forskolin], the fold induction at 2.5 µM is 1.25 under setting [1], 1.39 under setting [2] and 1.11 under setting [3].

Take `COc1cc(Nc2ncc(F)c(Nc3ccc4c(n3)N(COP(=O)(O)O)C(=O)C(C)(C)O4)n2)cc(OC)c1OC` [Fostamatinib (R788)]: for the setting “2.5 uM”, the “Average LMP1 Fold Increase” value is 0.67, the “Replicate 1-LMP1 Fold Increase” value is 0.24 and the “Replicate 2-LMP1 Fold Increase” value is recorded as 1.11.

For `C[C@]12CC[C@@H]3c4ccc(O)cc4C[C@@H](CCCCCCCCC[S+]([O-])CCCC(F)(F)C(F)(F)F)[C@H]3[C@@H]1CC[C@@H]2O` (stereo partly drawn) [Fulvestrant], the fold induction at 2.5 µM under setting [1] turned out to be 0.17, the fold induction at 2.5 µM under setting [2] was 0.16 and the fold induction at 2.5 µM under setting [3] came to 0.18.

Consider `Cc1nc(-c2cn3c(n2)-c2ccc(-c4cnn(C(C)(C)C(N)=O)c4)cc2OCC3)n(C(C)C)n1` [GDC-0032], for which, under “1 uM”, the “Average LMP1 Fold Increase” value came to 1.23, the “Replicate 1-LMP1 Fold Increase” value is 1.86 and the “Replicate 2-LMP1 Fold Increase” value amounted to 0.59.

Regarding `CC(C)NC[C@@H](C(=O)N1CCN(c2ncnc3c2[C@H](C)C[C@H]3O)CC1)c1ccc(Cl)cc1` [GDC-0068], where the note is “2.5 uM”, the “Average LMP1 Fold Increase” value is 0.27, the “Replicate 1-LMP1 Fold Increase” value is recorded as 0.27 and the “Replicate 2-LMP1 Fold Increase” value came out at 0.27.

For the compound `CN[C@@H](C)C(=O)N[C@H](C(=O)N1CCC[C@H]1C(=O)Nc1snnc1-c1ccccc1)C1CCCCC1` [GDC-0152], under “2.5 uM”, the “Average LMP1 Fold Increase” value came to 0.68, the “Replicate 1-LMP1 Fold Increase” value came out at 0.76 and the “Replicate 2-LMP1 Fold Increase” value was 0.59.

For `CS(=O)(=O)N1CCN(Cc2cc3nc(-c4cccc5[nH]ncc45)nc(N4CCOCC4)c3s2)CC1` [GDC-0941], where the note is “2.5 uM”, the “Average LMP1 Fold Increase” value is 0.92, the “Replicate 1-LMP1 Fold Increase” value came to 0.75 and the “Replicate 2-LMP1 Fold Increase” value was found to be 1.09.

On to `NC(=O)c1cccc(-c2cc(Nc3ccc(OC(F)(F)F)cc3)ncn2)c1` [GNF-2], for which, where the note is “2.5 uM”, the “Average LMP1 Fold Increase” value was determined as 1.06, the “Replicate 1-LMP1 Fold Increase” value is 0.21 and the “Replicate 2-LMP1 Fold Increase” value is reported as 1.91.

With `CC1=C(C(=O)Nc2cc3cn[nH]c3cc2F)C(c2ccc(C(F)(F)F)cc2)CC(=O)N1` (stereo not drawn) [GSK429286A], under “2.5 uM”, the “Average LMP1 Fold Increase” value was 0.57, the “Replicate 1-LMP1 Fold Increase” value stood at 0.60 and the “Replicate 2-LMP1 Fold Increase” value turned out to be 0.54.

Consider `C[C@@H](Oc1cc(-n2cnc3ccc(CN4CCN(C)CC4)cc32)sc1C(N)=O)c1ccccc1C(F)(F)F` [GSK461364], for which, under “2.5 uM”, the “Average LMP1 Fold Increase” value was determined as 1.62, the “Replicate 1-LMP1 Fold Increase” value came to 1.73 and the “Replicate 2-LMP1 Fold Increase” value was 1.50.

`CCn1c(-c2nonc2N)nc2c(C#CC(C)(C)O)ncc(OC[C@H]3CCCNC3)c21` [GSK690693]: for the setting “2.5 uM”, the “Average LMP1 Fold Increase” value is on record as 0.63, the “Replicate 1-LMP1 Fold Increase” value was 0.85 and the “Replicate 2-LMP1 Fold Increase” value is listed as 0.41.

With `CC(C)c1noc(N2CCC(COc3ccc(-c4ccc(S(C)(=O)=O)cc4)nc3)CC2)n1` [GSK1292263], under “2.5 uM”, the “Average LMP1 Fold Increase” value was 0.27, the “Replicate 1-LMP1 Fold Increase” value was determined as 0.20 and the “Replicate 2-LMP1 Fold Increase” value is 0.34.

Take `CCc1cc(Nc2nccc(-c3c(-c4ccc(OC)c(C(=O)Nc5c(F)cccc5F)c4)nc4ccccn34)n2)c(OC)cc1N1CCC(N2CCN(S(C)(=O)=O)CC2)CC1` [GSK1904529A]: where the note is “2.5 uM”, the “Average LMP1 Fold Increase” value amounted to 0.20, the “Replicate 1-LMP1 Fold Increase” value stood at 0.18 and the “Replicate 2-LMP1 Fold Increase” value turned out to be 0.23.

On to `Cc1cccc(CC(=O)N2CCc3c2ccc(-c2cn(C)c4ncnc(N)c24)c3F)n1` [GSK2656157], for which, under “2.5 uM”, the “Average LMP1 Fold Increase” value is given as 0.71, the “Replicate 1-LMP1 Fold Increase” value stood at 0.58 and the “Replicate 2-LMP1 Fold Increase” value is 0.84.

Turning to `CCOC(=O)CCNc1cc(N2CCc3ccccc3CC2)nc(-c2ccccn2)n1.Cl` [GSK J4 HCl], where the note is “2.5 uM”, the “Average LMP1 Fold Increase” value is listed as 32.34, the “Replicate 1-LMP1 Fold Increase” value is 48.53 and the “Replicate 2-LMP1 Fold Increase” value was 16.15.

In the case of `Cc1cc(SCc2sc(-c3ccc(C(F)(F)F)c(F)c3)nc2C)ccc1OCC(=O)O` [GW0742], for the setting “2.5 uM”, the “Average LMP1 Fold Increase” value is given as 0.76, the “Replicate 1-LMP1 Fold Increase” value is 0.53 and the “Replicate 2-LMP1 Fold Increase” value was 0.99.

Turning to `COc1ccc(COc2ccc(Cc3cnc(N)nc3N)cc2OC)cc1` [GW2580], under “2.5 uM”, the “Average LMP1 Fold Increase” value was 0.49, the “Replicate 1-LMP1 Fold Increase” value worked out at 0.50 and the “Replicate 2-LMP1 Fold Increase” value is given as 0.48.

`Cl.O=C(O)Cc1cccc(OCCCN(Cc2cccc(C(F)(F)F)c2Cl)CC(c2ccccc2)c2ccccc2)c1` [GW3965 HCl]: for the setting “2.5 uM”, the “Average LMP1 Fold Increase” value is 0.27, the “Replicate 1-LMP1 Fold Increase” value is 0.20 and the “Replicate 2-LMP1 Fold Increase” value was determined as 0.35.

As to `CC(C)c1onc(-c2c(Cl)cccc2Cl)c1COc1ccc(/C=C/c2cccc(C(=O)O)c2)c(Cl)c1` [GW4064], where the note is “2.5 uM”, the “Average LMP1 Fold Increase” value came to 0.72, the “Replicate 1-LMP1 Fold Increase” value amounted to 0.94 and the “Replicate 2-LMP1 Fold Increase” value amounted to 0.50.

In the case of `O=C(O)CCc1ccc(NCc2cccc(Oc3ccccc3)c2)cc1` [GW9508], under “2.5 uM”, the “Average LMP1 Fold Increase” value amounted to 0.48, the “Replicate 1-LMP1 Fold Increase” value is recorded as 0.52 and the “Replicate 2-LMP1 Fold Increase” value was 0.45.

Turning to `O=C(Nc1ccccc1)c1cc([N+](=O)[O-])ccc1Cl` [GW9662], under “2.5 uM”, the “Average LMP1 Fold Increase” value is 0.58, the “Replicate 1-LMP1 Fold Increase” value was found to be 0.26 and the “Replicate 2-LMP1 Fold Increase” value amounted to 0.89.

With `Cn1cc(/C=C2\C(=O)Nc3cccnc32)c2ccccc21` [GW441756], for the setting “2.5 uM”, the “Average LMP1 Fold Increase” value was found to be 0.80, the “Replicate 1-LMP1 Fold Increase” value is on record as 0.70 and the “Replicate 2-LMP1 Fold Increase” value was found to be 0.89.

As to `CC(C)c1cc(-c2n[nH]c(=O)n2-c2ccc3c(ccn3C)c2)c(O)cc1O` [Ganetespib], the fold induction at 1 µM (read-out: Average LMP1 Fold Increase, Kem I cells, 1 uM, 48 hours, average of replicates 1 and 2) was 23.4; the fold induction at 1 µM (read-out: Replicate 1-LMP1 Fold Increase, Kem I cells, 1 uM, 48 hours, fold change in LMP1 transcript vs vehicle) worked out at 8.07; the fold induction at 1 µM (read-out: Replicate 2-LMP1 Fold Increase, Kem I cells, 1 uM, 48 hours, fold change in LMP1 transcript vs vehicle) amounted to 38.8.

Take `C[C@@H]1C(=O)O[C@H]2C[C@@]34[C@H]5C[C@@H](C(C)(C)C)[C@]36[C@@H](OC(=O)[C@@H]6O)O[C@@]4(C(=O)O5)[C@]21O` [Ginkgolide A]: for the setting “2.5 uM”, the “Average LMP1 Fold Increase” value amounted to 0.91, the “Replicate 1-LMP1 Fold Increase” value worked out at 1.33 and the “Replicate 2-LMP1 Fold Increase” value is given as 0.49.

For the compound `CC1C(=O)OC2C(O)C34C5CC(C(C)(C)C)C36C(OC(=O)C6O)OC4(C(=O)O5)C12O` (stereo not drawn) [Ginkgolide B], under “2.5 uM”, the “Average LMP1 Fold Increase” value came to 0.76, the “Replicate 1-LMP1 Fold Increase” value worked out at 1.04 and the “Replicate 2-LMP1 Fold Increase” value is 0.49.

As to `Cc1ccc(S(=O)(=O)NC(=O)NN2CC3CCCC3C2)cc1` (stereo not drawn) [Gliclazide], the fold induction at 2.5 µM under setting [1] worked out at 0.73, the fold induction at 2.5 µM under setting [2] worked out at 0.98 and the fold induction at 2.5 µM under setting [3] worked out at 0.49.

(Values after patent publication US20230053688A1, “METHODS TO ALTER LATENCY IN EBV+ MALIGNANCIES” (Cornell University, priority 2020, published 2023).)
